What was measured:
[1] = target: Tyrosine-protein kinase Lck (Homo sapiens, UniProt P06239); experiment: DRUGMATRIX: Protein Tyrosine Kinase, LCK enzyme inhibition (substrate: Poly(Glu:Tyr)); format: cell-based, Insect cells; conditions: insect cells; Not Active = under 50% inhibition at 10 µM
[2] = target: T1, Nitric oxide synthase, inducible (Mus musculus, UniProt P29477); parameters: species or system Escherichia coli;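 note: inhibition of iNOS enzyme activity measured with L-arginine as substrate; in other assays of this panel Not Active means under 50% inhibition at 10 µM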
T1 sequence (P29477 whole entry): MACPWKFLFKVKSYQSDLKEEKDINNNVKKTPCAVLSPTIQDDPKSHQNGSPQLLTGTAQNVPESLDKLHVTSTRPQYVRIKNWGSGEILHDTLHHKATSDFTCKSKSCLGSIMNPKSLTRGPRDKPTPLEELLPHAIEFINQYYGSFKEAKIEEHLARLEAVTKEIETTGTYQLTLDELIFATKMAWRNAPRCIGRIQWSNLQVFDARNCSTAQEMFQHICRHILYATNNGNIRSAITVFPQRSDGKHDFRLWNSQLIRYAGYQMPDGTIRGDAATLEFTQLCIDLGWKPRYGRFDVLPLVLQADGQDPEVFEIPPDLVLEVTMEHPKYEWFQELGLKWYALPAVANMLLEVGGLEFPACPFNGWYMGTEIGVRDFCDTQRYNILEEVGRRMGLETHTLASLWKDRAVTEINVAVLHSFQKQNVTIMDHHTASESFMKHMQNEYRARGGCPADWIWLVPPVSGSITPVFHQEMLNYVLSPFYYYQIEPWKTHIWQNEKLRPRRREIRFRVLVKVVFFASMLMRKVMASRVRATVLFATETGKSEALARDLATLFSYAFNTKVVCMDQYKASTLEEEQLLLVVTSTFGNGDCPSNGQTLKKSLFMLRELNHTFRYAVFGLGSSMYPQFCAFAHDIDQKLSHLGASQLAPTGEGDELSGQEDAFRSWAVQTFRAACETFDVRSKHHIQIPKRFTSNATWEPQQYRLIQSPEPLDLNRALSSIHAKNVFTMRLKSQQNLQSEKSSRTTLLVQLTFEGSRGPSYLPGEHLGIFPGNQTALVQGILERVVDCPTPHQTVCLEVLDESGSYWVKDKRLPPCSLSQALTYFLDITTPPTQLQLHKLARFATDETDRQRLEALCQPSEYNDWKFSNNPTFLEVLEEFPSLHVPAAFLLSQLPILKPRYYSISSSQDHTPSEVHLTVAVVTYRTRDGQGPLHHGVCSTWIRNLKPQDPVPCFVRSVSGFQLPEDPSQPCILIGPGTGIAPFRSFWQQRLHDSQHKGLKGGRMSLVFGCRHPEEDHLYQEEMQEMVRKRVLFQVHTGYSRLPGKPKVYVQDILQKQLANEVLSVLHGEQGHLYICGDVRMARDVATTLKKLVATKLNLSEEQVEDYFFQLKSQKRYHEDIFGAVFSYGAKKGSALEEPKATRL

[3] = DRUGMATRIX: Glutamate, NMDA, Agonism radioligand binding (ligand: [3H] CGP-39653); format: cell membranes, Rattus norvegicus, Wistar, Cerebral cortex, Membrane; conditions: Not Active = under 50% inhibition at 10 µM
Substance-P receptor = Substance-P receptor (Homo sapiens, UniProt P25103); format: cell membranes, Membrane; conditions: cho; note: in other assays of this panel Not Active means under 50% inhibition at 10 µM
[4] = target: 5-hydroxytryptamine receptor 1B (Rattus norvegicus, UniProt P28564); format: cell membranes, Wistar, Cerebral cortex, Membrane; note: in other assays of this panel Not Active means under 50% inhibition at 10 µM
[5] = DRUGMATRIX: Phorbol Ester radioligand binding (ligand: [3H] PDBu); format: cell membranes, Mus musculus, ICR, Brain, Membrane; conditions: Not Active = under 50% inhibition at 10 µM
Cytochrome P450 2E1 = Cytochrome P450 2E1 (Homo sapiens, UniProt P05181); conditions: bti-tn-5b1-4; note: in other assays of this panel Not Active means under 50% inhibition at 10 µM
Cytochrome P450 2E1, sequence (P05181 whole entry): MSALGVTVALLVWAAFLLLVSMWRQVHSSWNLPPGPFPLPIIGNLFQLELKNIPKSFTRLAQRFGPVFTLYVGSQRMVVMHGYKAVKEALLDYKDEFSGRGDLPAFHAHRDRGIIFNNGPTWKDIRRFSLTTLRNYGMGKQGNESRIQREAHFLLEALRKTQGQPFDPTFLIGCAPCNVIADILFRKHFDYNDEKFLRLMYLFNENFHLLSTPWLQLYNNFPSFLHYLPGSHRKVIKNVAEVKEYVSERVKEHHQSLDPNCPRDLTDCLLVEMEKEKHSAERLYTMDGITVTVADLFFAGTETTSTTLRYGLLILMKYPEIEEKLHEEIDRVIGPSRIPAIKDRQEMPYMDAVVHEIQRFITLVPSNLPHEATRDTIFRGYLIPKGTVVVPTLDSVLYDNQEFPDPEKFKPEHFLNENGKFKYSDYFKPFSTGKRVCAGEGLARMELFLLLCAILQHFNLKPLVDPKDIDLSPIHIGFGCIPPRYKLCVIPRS

5-hydroxytryptamine receptor 1B, sequence (P28564 whole entry): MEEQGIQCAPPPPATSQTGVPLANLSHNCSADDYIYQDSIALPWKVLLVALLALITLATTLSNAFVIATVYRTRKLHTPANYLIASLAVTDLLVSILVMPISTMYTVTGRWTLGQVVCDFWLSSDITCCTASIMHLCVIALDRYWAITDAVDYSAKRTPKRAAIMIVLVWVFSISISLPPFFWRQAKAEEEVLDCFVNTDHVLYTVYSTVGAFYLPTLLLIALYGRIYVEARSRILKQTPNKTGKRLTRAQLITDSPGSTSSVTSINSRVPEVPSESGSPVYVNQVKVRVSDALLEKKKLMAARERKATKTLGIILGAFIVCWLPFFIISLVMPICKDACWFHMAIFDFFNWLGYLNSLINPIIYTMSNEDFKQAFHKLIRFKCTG
Tyrosine-protein kinase Lck, sequence (P06239 whole entry): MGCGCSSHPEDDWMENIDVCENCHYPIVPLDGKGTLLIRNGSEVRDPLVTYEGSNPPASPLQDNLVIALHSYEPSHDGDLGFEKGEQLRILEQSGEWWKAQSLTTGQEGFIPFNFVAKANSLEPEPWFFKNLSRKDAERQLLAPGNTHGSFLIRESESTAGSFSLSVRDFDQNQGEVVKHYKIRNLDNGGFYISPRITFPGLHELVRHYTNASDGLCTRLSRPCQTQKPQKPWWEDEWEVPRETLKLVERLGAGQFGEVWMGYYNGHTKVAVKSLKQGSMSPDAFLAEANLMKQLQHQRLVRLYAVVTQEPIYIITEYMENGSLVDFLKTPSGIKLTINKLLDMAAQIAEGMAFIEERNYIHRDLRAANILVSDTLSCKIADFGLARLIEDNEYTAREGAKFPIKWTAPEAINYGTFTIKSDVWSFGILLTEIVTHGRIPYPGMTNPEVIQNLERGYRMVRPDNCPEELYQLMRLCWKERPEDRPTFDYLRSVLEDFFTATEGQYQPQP
Substance-P receptor, sequence (P25103 whole entry): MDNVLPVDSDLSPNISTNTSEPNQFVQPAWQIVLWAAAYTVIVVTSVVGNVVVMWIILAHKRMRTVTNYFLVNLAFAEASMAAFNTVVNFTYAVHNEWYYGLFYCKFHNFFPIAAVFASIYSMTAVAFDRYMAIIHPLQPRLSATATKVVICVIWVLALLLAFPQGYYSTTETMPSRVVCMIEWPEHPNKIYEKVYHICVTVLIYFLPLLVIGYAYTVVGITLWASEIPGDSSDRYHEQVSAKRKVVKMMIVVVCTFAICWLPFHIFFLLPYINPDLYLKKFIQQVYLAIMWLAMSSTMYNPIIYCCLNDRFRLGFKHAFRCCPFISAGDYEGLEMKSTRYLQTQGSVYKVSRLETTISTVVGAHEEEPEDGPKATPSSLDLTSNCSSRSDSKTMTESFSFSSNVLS

CN1C(=O)COc2c(C(=O)NC3CN4CCC3CC4)cc(Cl)cc21 (stereo unspecified) [AZASETRON]
Not Active: IC50 [1] | IC50 [2] | IC50 [3] | Ki [3] | IC50 (Substance-P receptor) | IC50 [4] | IC50 [5] | Ki [5] | IC50 (Cytochrome P450 2E1) | Ki (Cytochrome P450 2E1)

C[C@H]1C[C@H]2[C@@H]3CCC4=CC(=O)C=C[C@]4(C)[C@@]3(Cl)[C@@H](O)C[C@]2(C)[C@@]1(O)C(=O)CO [BECLOMETHASONE]
Not Active: IC50 [1] | IC50 [2] | IC50 [3] | Ki [3] | IC50 (Substance-P receptor) | IC50 [4] | IC50 [5] | Ki [5] | IC50 (Cytochrome P450 2E1) | Ki (Cytochrome P450 2E1)

O=C1CC2(CCCC2)CC(=O)N1CCCCN1CCN(c2ncccn2)CC1 [BUSPIRONE]
Not Active: IC50 [1] | IC50 [2] | IC50 [3] | Ki [3] | IC50 (Substance-P receptor) | IC50 [4] | IC50 [5] | Ki [5] | IC50 (Cytochrome P450 2E1) | Ki (Cytochrome P450 2E1)

C[C@@]12C(=O)OC(=O)[C@]1(C)[C@H]1CC[C@@H]2O1 [CANTHARIDIN]
Not Active: IC50 [1] | IC50 [2] | IC50 [3] | Ki [3] | IC50 (Substance-P receptor) | IC50 [4] | IC50 [5] | Ki [5] | IC50 (Cytochrome P450 2E1) | Ki (Cytochrome P450 2E1)

C[N+](C)(C)CCO.[Cl-] [CHOLINE CHLORIDE]
Not Active: IC50 [1] | IC50 [2] | IC50 [3] | Ki [3] | IC50 (Substance-P receptor) | IC50 [4] | IC50 [5] | Ki [5] | IC50 (Cytochrome P450 2E1) | Ki (Cytochrome P450 2E1)

C/C=C/C[C@@H](C)[C@@H](O)[C@H]1C(=O)N[C@@H](CC)C(=O)N(C)CC(=O)N(C)[C@@H](CC(C)C)C(=O)N[C@@H](C(C)C)C(=O)N(C)[C@@H](CC(C)C)C(=O)N[C@@H](C)C(=O)N[C@H](C)C(=O)N(C)[C@@H](CC(C)C)C(=O)N(C)[C@@H](CC(C)C)C(=O)N(C)[C@@H](C(C)C)C(=O)N1C [CYCLOSPORINE]
Not Active: IC50 [1] | IC50 [2] | IC50 [3] | Ki [3] | IC50 (Substance-P receptor) | IC50 [4] | IC50 [5] | Ki [5]

CC(=O)Nc1c(I)c(NC(C)=O)c(I)c(C(=O)O)c1I [DIATRIZOIC ACID]
Not Active: IC50 [1] | IC50 [2] | IC50 [3] | Ki [3] | IC50 (Substance-P receptor) | IC50 [4] | IC50 [5] | Ki [5] | IC50 (Cytochrome P450 2E1) | Ki (Cytochrome P450 2E1)

C[C@]12CC[C@@H]3c4ccc(O)cc4CC[C@H]3[C@@H]1CC[C@@H]2O [ESTRADIOL]
Not Active: IC50 [1] | IC50 [2] | IC50 [3] | Ki [3] | IC50 (Substance-P receptor) | IC50 [4] | IC50 [5] | Ki [5] | IC50 (Cytochrome P450 2E1) | Ki (Cytochrome P450 2E1)

CC1(C)O[C@@H]2C[C@H]3[C@@H]4C[C@H](F)C5=CC(=O)C=C[C@]5(C)[C@@]4(F)[C@@H](O)C[C@]3(C)[C@]2(C(=O)CO)O1 [FLUOCINOLONE ACETONIDE]
Not Active: IC50 [1] | IC50 [2] | IC50 [3] | Ki [3] | IC50 (Substance-P receptor) | IC50 [4] | IC50 [5] | Ki [5] | IC50 (Cytochrome P450 2E1) | Ki (Cytochrome P450 2E1)

Cc1ccc(S(=O)(=O)NC(=O)NN2CC3CCCC3C2)cc1 (stereo unspecified) [GLICLAZIDE]
Not Active: IC50 [1] | IC50 [2] | IC50 [3] | Ki [3] | IC50 (Substance-P receptor) | IC50 [4] | IC50 [5] | Ki [5] | IC50 (Cytochrome P450 2E1) | Ki (Cytochrome P450 2E1)

COc1ccc2c(c1)c(CC(=O)O)c(C)n2C(=O)c1ccc(Cl)cc1 [INDOMETHACIN]
Not Active: IC50 [1] | IC50 [2] | IC50 [3] | Ki [3] | IC50 (Substance-P receptor) | IC50 [4] | IC50 [5] | Ki [5] | IC50 (Cytochrome P450 2E1) | Ki (Cytochrome P450 2E1)

C#C[C@]1(O)CC[C@H]2[C@@H]3CCc4cc(OC)ccc4[C@H]3CC[C@@]21C [MESTRANOL]
Not Active: IC50 [1] | IC50 [2] | IC50 [3] | Ki [3] | IC50 (Substance-P receptor) | IC50 [4] | IC50 [5] | Ki [5] | IC50 (Cytochrome P450 2E1) | Ki (Cytochrome P450 2E1)

Cc1ncc([N+](=O)[O-])n1CCO [METRONIDAZOLE]
Not Active: IC50 [1] | IC50 [2] | IC50 [3] | Ki [3] | IC50 (Substance-P receptor) | IC50 [4] | IC50 [5] | Ki [5] | IC50 (Cytochrome P450 2E1) | Ki (Cytochrome P450 2E1)

CC(C)(C(=O)c1cccnc1)c1cccnc1 [METYRAPONE]
Not Active: IC50 [1] | IC50 [2] | IC50 [3] | Ki [3] | IC50 (Substance-P receptor) | IC50 [4] | IC50 [5] | Ki [5] | IC50 (Cytochrome P450 2E1) | Ki (Cytochrome P450 2E1)

COc1ccc2cc([C@H](C)C(=O)O)ccc2c1 [NAPROXEN]
Not Active: IC50 [1] | IC50 [2] | IC50 [3] | Ki [3] | IC50 (Substance-P receptor) | IC50 [4] | IC50 [5] | Ki [5]

COC(=O)C1=C(C)NC(C)=C(C(=O)OCC(C)C)C1c1ccccc1[N+](=O)[O-] (stereo unspecified) [NISOLDIPINE]
Not Active: IC50 [1] | IC50 [2] | IC50 [3] | Ki [3] | IC50 (Substance-P receptor) | IC50 [4] | IC50 [5] | Ki [5] | IC50 (Cytochrome P450 2E1) | Ki (Cytochrome P450 2E1)

O=C(C1CCCCC1)N1CC(=O)N2CCc3ccccc3C2C1 (stereo unspecified) [PRAZIQUANTEL]
Not Active: IC50 [1] | IC50 [2] | IC50 [3] | Ki [3] | IC50 (Substance-P receptor) | IC50 [4] | IC50 [5] | Ki [5] | IC50 (Cytochrome P450 2E1) | Ki (Cytochrome P450 2E1)

CCN(CC)CCOC(=O)c1ccc(N)cc1 [PROCAINE]
Not Active: IC50 [1] | IC50 [2] | IC50 [3] | Ki [3] | IC50 (Substance-P receptor) | IC50 [4] | IC50 [5] | Ki [5] | IC50 (Cytochrome P450 2E1) | Ki (Cytochrome P450 2E1)

CCCN(CCC)C(=O)C(CCC(=O)O)NC(=O)c1ccccc1 (stereo unspecified) [PROGLUMIDE]
Not Active: IC50 [1] | IC50 [2] | IC50 [3] | Ki [3] | IC50 (Substance-P receptor) | IC50 [4] | IC50 [5] | Ki [5] | IC50 (Cytochrome P450 2E1) | Ki (Cytochrome P450 2E1)

Cc1cc2cc3c(C)cc(=O)oc3c(C)c2o1 [TRIOXSALEN]
Not Active: IC50 [1] | IC50 [2] | IC50 [3] | Ki [3] | IC50 (Substance-P receptor) | IC50 [4] | IC50 [5] | Ki [5] | IC50 (Cytochrome P450 2E1) | Ki (Cytochrome P450 2E1)

CCCC(CCC)C(=O)O [VALPROIC ACID]
Not Active: IC50 [1] | IC50 [2] | IC50 [3] | Ki [3] | IC50 (Substance-P receptor) | IC50 [4] | IC50 [5] | Ki [5] | IC50 (Cytochrome P450 2E1) | Ki (Cytochrome P450 2E1)

CCC1=C[C@@H]2CN(C1)Cc1c([nH]c3ccccc13)[C@@](C(=O)OC)(c1cc3c(cc1OC)N(C)[C@H]1[C@@](O)(C(=O)OC)[C@H](OC(C)=O)[C@]4(CC)C=CCN5CC[C@]31[C@@H]54)C2 [VINORELBINE]
Not Active: IC50 [1] | IC50 [2] | IC50 [3] | Ki [3] | IC50 (Substance-P receptor) | IC50 [4] | IC50 [5] | Ki [5] | IC50 (Cytochrome P450 2E1) | Ki (Cytochrome P450 2E1)
